The record followed here is patent US20120095445A1, “METHODS AND COMPOSITIONS FOR INCREASING TRICHOGENIC POTENCY OF DERMAL CELLS” (Aderans Research Institute, Inc., priority 2009, published 2012).

One data set concerns human adult dermal cells. Description: Aderans Hair Patch Assay (hybrid patch assay) with cultured human adult dermal cells. It counts as cell-based. An excerpt:
Trichogenic activity of populations of dermal cells can be determined by using the Aderans Hair Patch Assay™ (Zheng, Y., J Invest Dermatol, 124: 867-876 (2005)). In this assay dissociated dermal and epidermal cells are implanted into the dermis or the subcutis of an immunoincompetent mouse. Using mouse newborn skin cells, new hair follicles typically form in this assay within 8 to 10 days. The newly formed follicle manifests normal hair shafts, mature sebaceous glands, and a natural hair cycle. Although normal cycling hair follicles are formed in this assay, the assay primarily measures the ability of cells or combinations of cells to form new follicles. Mouse dermal cells are assayed in conjunction with mouse neonatal epidermal cells.
(§1) Trichogenic activity of populations of dermal cells was determined by the Aderans Hair Patch Assay™ (Zheng, Y., J Invest Dermatol, 124: 867-876 (2005)). In this assay dissociated dermal and epidermal cells are implanted into the dermis or the subcutis of an immunoincompetent mouse. Using mouse newborn skin cells, new hair follicles typically form in this assay within 8 to 10 days. The newly formed follicle manifests normal hair shafts, mature sebaceous glands, and a natural hair cycle. Although normal cycling hair follicles are formed in this assay, the assay primarily measures the ability of cells or combinations of cells to form new follicles. In the classical Patch assay mouse neonatal dermal cells were assayed in conjunction with mouse neonatal epidermal cells. In a modification of that assay human adult dermal cells are assayed in the presence of mouse newborn epidermal cells.
In the initial study four different concentrations of one of the Curls, Inc. Shh pathway agonist (agonist A-CUR-0201365) were used, 0, 0.005, 0.05 and 0.125 ug/ml (FIG. 2A). […] The number of hair follicles formed in the hair patch assay is greater when the cells are grown in the presence of the Shh pathway agonist.
To investigate if Shh pathway agonist can increase cell inductivity with short-term treatment (7 days before harvest); 3 patient samples were tested using agonist B. For each sample, the cells were treated with 0, 0.0125, 0.0375, 0.05 and 0.15 ug/ml of Shh pathway agonist B at the passage P1 or P2. P1 and P2 cells were then harvested after approximately 7 days and analyzed in the hybrid patch assay. […] Cells were treated for that 7 day period only, but not treated prior to that.

The next data set deals with dermal cells. Description: Growth and yield of dermal cells in culture (population doubling time, number of cells). It counts as cell-based, human. An excerpt:
FIG. 3A is a graph showing the population doubling time of dermal cells treated with the indicated amount of a Shh pathway agonist. FIG. 3B is a graph showing number of cells (millions) of dermal cells treated with Shh pathway agonist at confluence.
FIG. 5A is a graph showing the average number of cells (millions) in flasks using dermal cells treated with the indicated amount of Shh pathway agonist after one passage in culture. FIG. 5B is a graph showing the average number of cells (millions) in flasks using dermal cells treated with the indicated amount of Shh pathway agonist after two passages in culture. FIG. 5C is a graph of population doubling time (days) for dermal cells treated with the indicated amount of Shh pathway agonist after one passage in culture. FIG. 5D is a graph of population doubling time (days) for dermal cells treated with the indicated amount of Shh pathway agonist after two passages in culture.

Data set [1] concerns mouse neonatal dermal cells. Description: Patch assay with mouse neonatal dermal cell culture. The class given is cell-based. The procedure:
as §1
In addition to cultured human cells, the SHH pathway agonist B was added to mouse neonatal dermal cell culture.

Another data set concerns human fetal cells. The experiment in a line: Aderans Hair Patch Assay with human fetal cell cultures. The conditions noted are these: for effect on hair number: FIG. 9. It counts as cell-based.
Source text: FIG. 7 is a graph of the number of hair follicles formed from human fetal cell cultures in the Aderans Hair Patch Assay™ versus the indicated cell culture passage P0, P1, P2 or P3 in cells culture with a Shh pathway agonist. Each passage has a pair of columns with the left column corresponding to results obtained without treating the cells with an agonist and a right column showing results with cells treated with an agonist.
FIG. 8 is a graph of number of hair follicles formed from human fetal cell cultures in the Aderans Hair Patch Assay™ in untreated or treated cells at the indicated cell culture passage.
FIG. 9 is a graph of the number of hair follicles formed from human fetal cell cultures in the Aderans Hair Patch Assay™ in the indicated medium.
as §1
We have recently extended our study of the impact of SHH pathway agonist B (CUR-0236715) on hair inducing activity from human adult cells to human fetal cells, as well as mouse cells.
In another experiment, cells were initially cultured in medium without SHH pathway agonist. The SHH pathway agonist CUR-0236715 was only added to the culture at the beginning of a particular passage, and lasted for that passage only (P1 and P4 as shown in FIG. 8). Adding SHH pathway agonist B (CUR-0236715) at these later passages can still increase fetal cell trichogenicity.

On to `CNC1CCC(N(Cc2cc(-c3ccccc3)ccc2OC)C(=O)c2sc3ccccc3c2Cl)CC1` (stereo not drawn) [agonist A], for which the “hair follicles in the patch assay (per million cells injected) compared to non-treated cells” value with human adult dermal cells (cells grown in medium with agonist, 0.005-0.625 ug/ml, FIG. 2) is “produced more hair follicles”. In addition, in the data set on human adult dermal cells (highest concentration, without agonist trichogenicity diminished), the “trichogenicity with passage (P1 through P4)” value is listed as “remained at a high level”. For the same molecule, the “dose-response relationship of hair follicle number in patch assay” value with human adult dermal cells (increasing agonist concentration in the medium) is recorded as “increasing effect (hair follicle number in patch assay) with increasing Shh pathway agonist concentration”. In the data set on dermal cells (in the higher concentrations, FIG. 3), the cell growth rate entry is “decreases”.

Regarding `CNC1CCC(N(Cc2cc(-c3ccc(NS(C)(=O)=O)nc3)ccc2OC)C(=O)c2sc3c(F)ccc(F)c3c2Cl)CC1` (stereo not drawn) [agonist B], in data set [1], the “size of hair follicles compared to non-treated cells” value is given as “increased significantly”. Moreover, the “activity as indicated by the number of hair follicles formed in patch assay” value in data set [1] (preliminary data, FIG. 10) was “increased activity”. The “short term results versus continuous treatment” value in the data set with human adult dermal cells (7 day treatment only) is “comparable to that of continuous treatment”. Further, the “optimal concentration for hair follicle formation” value in the data set on human adult dermal cells (continuous treatment, at P2, FIG. 4B) came to 0.0375 µg/mL. Also, in the data set on human adult dermal cells (continuous treatment, various agonist concentrations, FIG. 4), the “hair follicle number in patch assays” value was “increased hair follicle number”. Moreover, the “hair follicle numbers compared to the control” value with human adult dermal cells (short-term treatment (7 days before harvest), 0.0125-0.15 ug/ml, P1 or P2, 3 patient samples, FIGS. 6A and 6B) was “higher hair follicle numbers”. Also, the optimal concentration with human adult dermal cells (short-term treatment (7 days), P1 and P2 cells) worked out at 0.0375 µg/mL. In addition, the “adverse effect on cell growth or yield” value with dermal cells (all the concentrations tested, FIG. 5) was “did not show any adverse effect”. The “increase in hair number” value in the data set on human fetal cells (37.5 ng/ml at P0, FIG. 7) is “more than 3 fold”. Also, the “effect on hair number” value with human fetal cells (Amniomax, Chang's media and culture medium of Osada et al.) was “not significant”; with human fetal cells (agonist added to cell culture medium), “increase of hair number”. In addition, the “number of hair follicles versus cells consistently treated throughout the culture” value in the data set with human fetal cells (agonist only at P1 or P4) is recorded as “equivalent”. Besides, the “number of hair follicles formed versus no SHH control cells” value with human fetal cells (agonist only at P1 or P4, for that passage only, FIG. 8) is reported as “about 5 fold”. The “increase of hair number at later passages” value in the data set on human fetal cells (cells continuously cultured in the presence of agonist, FIG. 7) is on record as “extended to later passages (P3)”.
